In patent US11993599B2, “Therapeutic compounds” (Genentech, Inc., priority 2021, dated 2024):

Legend:
[1] = target: T1, BRG1 (Homo sapiens, UniProt P51532); test: Immunofluorescence assay for BRG1 degradation in SW1573 cells; type: cell-based; settings: 20 hours incubation; for DC50: immunofluorescence mean nuclear signal, read-out: BRG1 IF Degradation IC50; for Dmax: SW1573, 20 h, normalized to a known degrader control, read-out: BRG1 IF Degradation Sinf (%)
T1 construct: either BRM primary antibody (Cell signaling Cat #11966) or BRG primary antibody (Abcam, ab 110641); endogenous in cells; host or cells: SW1573
Experimental: (§1) Example B-2: Immunofluorescence Assay for BRM and BRG1 Degraders
(§2) SW1573 cells were seeded at 3000 cells/well in 384 well plates. The next day, compounds were added using an Echo dispenser. After 20 hours of incubation with compound, cells were fixed with 4% formaldehyde then permeabilized with 0.2% Triton X-100 and blocked with 10% FCS. Fixed and permeabilized cells were treated overnight at 4° C. with either BRM primary antibody (Cell signaling Cat #11966) or BRG primary antibody (Abcam, ab 110641). Finally, cells were treated with fluorescently labeled secondary antibodies for 1 hr (Donkey anti-Rabbit IgG AF488, Life Technologies, A21206) and Hoechst nuclear stain (#H3569) was added for 30 minutes. Cells were washed with PBS in between each step and before imaging on an Opera Phenix microscope (Perkin Elmer). Harmony software (Perking Elmer) was used to quantify the mean nuclear signaling intensity of BRM or BRG signaling per cell in each well. Dose responses were determined from the concentration dependent response of mean nuclear signal intensity with data normalized to a known degrader control. Dose response curves were fit to a floating maximum to allow for calculation of the Dmax.
(§3) Note that, in Table 5, the “Compound Number” corresponds to that used in Table 1. In Table 5, for BRM and BRG1 IF degradation IC50 (μM): A indicates <0.010 μM, B indicates 0.010-0.10 μM, and C indicates >0.10 μM; and for BRM and BRG1 IF degradation Sinf % D indicates 0-−30%, E indicates −30%-−70%, F indicates −71%-−120% and ND indicates the value was not determined.

[2] = target: BRM (Homo sapiens, UniProt P51531); test: Immunofluorescence assay for BRM degradation in SW1573 cells; type: cell-based; design: treated overnight at 4° C. with either BRM primary antibody (Cell signaling Cat #11966) or BRG primary antibody; endogenous in cells; host or cells: SW1573; settings: 20 hours incubation; for DC50: immunofluorescence mean nuclear signal, read-out: BRM IF Degradation IC50; for BRM IF Degradation Sinf (%): normalized to a known degrader control
Experimental: as §1, §2, §3

T1 sequence (P51532 whole entry): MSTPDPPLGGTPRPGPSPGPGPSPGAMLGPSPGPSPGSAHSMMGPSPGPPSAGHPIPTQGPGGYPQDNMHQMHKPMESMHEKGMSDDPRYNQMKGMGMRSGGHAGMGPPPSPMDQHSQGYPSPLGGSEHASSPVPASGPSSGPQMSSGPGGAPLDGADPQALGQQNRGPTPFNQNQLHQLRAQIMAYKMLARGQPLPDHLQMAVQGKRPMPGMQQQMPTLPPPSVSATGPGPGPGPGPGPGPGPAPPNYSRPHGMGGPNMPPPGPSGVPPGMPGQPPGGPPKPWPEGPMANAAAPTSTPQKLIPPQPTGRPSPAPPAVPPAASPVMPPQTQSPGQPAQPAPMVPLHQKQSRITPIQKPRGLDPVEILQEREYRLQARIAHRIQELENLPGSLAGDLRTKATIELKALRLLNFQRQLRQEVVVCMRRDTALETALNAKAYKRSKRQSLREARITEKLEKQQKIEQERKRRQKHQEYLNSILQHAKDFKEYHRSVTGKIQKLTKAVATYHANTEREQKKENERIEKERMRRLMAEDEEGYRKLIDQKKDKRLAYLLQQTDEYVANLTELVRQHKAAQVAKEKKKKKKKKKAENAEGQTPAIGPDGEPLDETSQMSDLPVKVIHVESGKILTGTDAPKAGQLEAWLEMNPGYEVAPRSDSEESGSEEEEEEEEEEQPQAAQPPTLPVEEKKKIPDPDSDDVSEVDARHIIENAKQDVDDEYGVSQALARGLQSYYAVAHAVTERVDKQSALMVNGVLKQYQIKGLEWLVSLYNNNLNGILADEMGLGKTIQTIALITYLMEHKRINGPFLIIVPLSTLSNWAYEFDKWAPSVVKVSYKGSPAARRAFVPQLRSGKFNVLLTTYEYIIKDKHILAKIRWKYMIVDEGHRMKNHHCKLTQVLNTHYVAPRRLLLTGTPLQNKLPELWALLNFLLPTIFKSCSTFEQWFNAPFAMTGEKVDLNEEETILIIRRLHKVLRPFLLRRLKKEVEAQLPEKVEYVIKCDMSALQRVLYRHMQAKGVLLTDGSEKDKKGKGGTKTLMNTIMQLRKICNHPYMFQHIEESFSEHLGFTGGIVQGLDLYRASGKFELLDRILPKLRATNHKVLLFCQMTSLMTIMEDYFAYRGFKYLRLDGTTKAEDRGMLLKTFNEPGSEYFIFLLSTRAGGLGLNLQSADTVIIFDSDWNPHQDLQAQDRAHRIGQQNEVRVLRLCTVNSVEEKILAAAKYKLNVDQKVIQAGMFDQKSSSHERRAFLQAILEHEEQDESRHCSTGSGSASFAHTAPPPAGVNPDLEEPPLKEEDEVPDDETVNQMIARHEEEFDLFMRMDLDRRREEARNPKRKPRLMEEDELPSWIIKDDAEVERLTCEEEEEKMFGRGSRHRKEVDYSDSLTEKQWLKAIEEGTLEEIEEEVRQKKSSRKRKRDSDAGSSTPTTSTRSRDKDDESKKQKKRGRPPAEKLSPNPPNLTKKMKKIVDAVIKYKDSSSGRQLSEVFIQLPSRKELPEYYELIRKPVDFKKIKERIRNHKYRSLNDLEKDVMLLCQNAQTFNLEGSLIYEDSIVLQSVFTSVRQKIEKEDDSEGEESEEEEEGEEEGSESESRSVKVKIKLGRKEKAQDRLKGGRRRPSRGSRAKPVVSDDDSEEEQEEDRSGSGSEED
Chain of BRM (P51531 whole entry): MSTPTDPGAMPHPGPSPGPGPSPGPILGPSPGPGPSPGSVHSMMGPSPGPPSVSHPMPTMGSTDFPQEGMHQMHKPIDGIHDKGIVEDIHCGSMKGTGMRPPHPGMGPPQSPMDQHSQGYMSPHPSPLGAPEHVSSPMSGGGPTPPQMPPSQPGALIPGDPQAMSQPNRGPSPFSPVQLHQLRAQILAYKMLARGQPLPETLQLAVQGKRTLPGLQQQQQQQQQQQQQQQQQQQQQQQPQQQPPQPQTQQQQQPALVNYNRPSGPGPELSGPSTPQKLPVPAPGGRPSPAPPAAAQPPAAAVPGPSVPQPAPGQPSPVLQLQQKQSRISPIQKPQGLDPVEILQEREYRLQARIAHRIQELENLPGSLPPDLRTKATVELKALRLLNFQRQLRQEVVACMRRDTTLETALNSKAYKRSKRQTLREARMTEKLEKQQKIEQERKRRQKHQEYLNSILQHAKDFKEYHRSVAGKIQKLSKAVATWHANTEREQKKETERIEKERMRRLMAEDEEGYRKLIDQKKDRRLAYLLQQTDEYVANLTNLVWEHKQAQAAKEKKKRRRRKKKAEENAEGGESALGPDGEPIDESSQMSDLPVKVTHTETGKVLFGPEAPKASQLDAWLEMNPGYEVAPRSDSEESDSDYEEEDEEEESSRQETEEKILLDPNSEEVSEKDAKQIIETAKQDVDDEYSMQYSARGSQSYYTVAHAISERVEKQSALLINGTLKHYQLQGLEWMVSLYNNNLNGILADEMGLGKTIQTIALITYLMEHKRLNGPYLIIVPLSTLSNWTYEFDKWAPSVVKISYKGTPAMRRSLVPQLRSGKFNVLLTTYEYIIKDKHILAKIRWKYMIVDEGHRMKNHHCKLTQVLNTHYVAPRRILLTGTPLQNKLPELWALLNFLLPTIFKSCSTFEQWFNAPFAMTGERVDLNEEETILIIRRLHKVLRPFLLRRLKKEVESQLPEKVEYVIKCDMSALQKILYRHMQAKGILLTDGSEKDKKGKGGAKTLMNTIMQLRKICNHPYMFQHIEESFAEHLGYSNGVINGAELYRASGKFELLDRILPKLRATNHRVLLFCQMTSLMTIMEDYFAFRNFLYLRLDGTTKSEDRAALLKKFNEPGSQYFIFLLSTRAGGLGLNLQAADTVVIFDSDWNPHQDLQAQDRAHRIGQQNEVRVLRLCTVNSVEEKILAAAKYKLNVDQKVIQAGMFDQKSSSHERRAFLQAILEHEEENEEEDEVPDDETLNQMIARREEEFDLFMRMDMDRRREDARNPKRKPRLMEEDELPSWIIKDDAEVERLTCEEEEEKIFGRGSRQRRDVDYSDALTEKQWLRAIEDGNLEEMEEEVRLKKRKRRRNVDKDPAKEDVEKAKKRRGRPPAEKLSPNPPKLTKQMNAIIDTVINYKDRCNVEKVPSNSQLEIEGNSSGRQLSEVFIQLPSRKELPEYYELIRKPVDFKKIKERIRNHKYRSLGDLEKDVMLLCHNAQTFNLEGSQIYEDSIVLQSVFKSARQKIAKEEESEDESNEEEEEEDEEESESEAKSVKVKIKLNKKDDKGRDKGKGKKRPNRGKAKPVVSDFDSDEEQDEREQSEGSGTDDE

Structure (SMILES) | DC50 [1] [nM] | DC50 [2] [nM] | BRM IF Degradation Sinf (%) [2] | Dmax [1] [%]
Nc1nnc(-c2ccccc2O)cc1N1CC2CCC(C1)N2c1ccnc(C#CCN2CC3CCC(C3)C2)c1 [Compound 93, 2-[6-amino-5-[8-[2-[3-(3-azabicyclo[3.2.1]octan-3-yl)prop-1-ynyl]-4-pyridyl]-3,8-diazabicyclo[3.2.1]octan-3-yl]pyridazin-3-yl]phenol] | > 100 | < 10 | E (E indicates −30%-−70%) | –
Nc1nnc(-c2ccccc2O)cc1N1CC2CCC(C1)N2c1ccnc(C#CCN2C3CCCC2COC3)c1 [Compound 111, 2-[6-amino-5-[8-[2-[3-(3-oxa-9-azabicyclo[3.3.1]nonan-9-yl)prop-1-ynyl]-4-pyridyl]-3,8-diazabicyclo[3.2.1]octan-3-yl]pyridazin-3-yl]phenol] | < 10 | < 10 | E (E indicates −30%-−70%) | 0 to 30
Nc1nnc(-c2ccccc2O)cc1N1CC2CCC(C1)N2c1ccnc(C#CCN2CCCCC(CO)C2)c1 (stereo not shown) [Compound 214, 2-[6-amino-5-[8-[2-[3-[3-(hydroxymethyl)azepan-1-yl]prop-1-ynyl]-4-pyridyl]-3,8-diazabicyclo[3.2.1]octan-3-yl]pyridazin-3-yl]phenol] | < 10 | < 10 | F (F indicates −71%-−120%) | 30 to 70
Nc1nnc(-c2ccccc2O)cc1N1CC2CCC(C1)N2c1ccnc(C#CCN2CC3(CC3)C2)c1 [Compound 233, 2-[6-amino-5-[8-[2-[3-(5-azaspiro[2.3]hexan-5-yl)prop-1-ynyl]-4-pyridyl]-3,8-diazabicyclo[3.2.1]octan-3-yl]pyridazin-3-yl]phenol] | < 10 | < 10 | E (E indicates −30%-−70%) | 30 to 70
Nc1nnc(-c2ccccc2O)cc1N1CC2CCC(C1)N2c1ccnc(C#CCN2CCCCC23CC3)c1 [Compound 153, 2-[6-amino-5-[8-[2-[3-(4-azaspiro[2.5]octan-4-yl)prop-1-ynyl]-4-pyridyl]-3,8-diazabicyclo[3.2.1]octan-3-yl]pyridazin-3-yl]phenol] | < 10 | < 10 | E (E indicates −30%-−70%) | 0 to 30
Nc1nnc(-c2ccccc2O)cc1N1CC2CCC(C1)N2c1ccnc(C#CCN2CC3CCCC32)c1 (stereo not shown) [Compound 162, 2-(5-(8-(2-(3-(6-azabicyclo[3.2.0]heptan-6-yl)prop-1-yn-1-yl)pyridin-4-yl)-3,8-diazabicyclo[3.2.1]octan-3-yl)-6-aminopyridazin-3-yl)phenol] | < 10 | < 10 | F (F indicates −71%-−120%) | 30 to 70
Nc1nnc(-c2ccccc2O)cc1N1CC2CCC(C1)N2c1ccnc(C#CCN2CCOC(F)(F)C2)c1 [Compound 112, 2-[6-amino-5-[8-[2-[3-(2,2-difluoromorpholin-4-yl)prop-1-ynyl]-4-pyridyl]-3,8-diazabicyclo[3.2.1]octan-3-yl]pyridazin-3-yl]phenol] | 10 to 100 | < 10 | E (E indicates −30%-−70%) | 0 to 30
CNC(=O)[C@@H]1CCCN1CC#Cc1cc(N2C3CCC2CN(c2cc(-c4ccccc4O)nnc2N)C3)ccn1 [Compound 163, (2S)-1-[3-[4-[3-[3-amino-6-(2-hydroxyphenyl)pyridazin-4-yl]-3,8-diazabicyclo[3.2.1]octan-8-yl]-2-pyridyl]prop-2-ynyl]-N-methyl-pyrrolidine-2-carboxamide] | > 100 | 10 to 100 | E (E indicates −30%-−70%) | 30 to 70
Nc1nnc(-c2ccccc2O)cc1N1CC2CCC(C1)N2c1ccnc(C#CCN2CCCC3(CC2)CC3(F)F)c1 (stereo not shown) [Compound 208, 2-[6-amino-5-[8-[2-[3-(2,2-difluoro-7-azaspiro[2.6]nonan-7-yl)prop-1-ynyl]-4-pyridyl]-3,8-diazabicyclo[3.2.1]octan-3-yl]pyridazin-3-yl]phenol] | < 10 | < 10 | E (E indicates −30%-−70%) | 30 to 70
Nc1nnc(-c2ccccc2O)cc1N1CC2CCC(C1)N2c1ccnc(C#CCN2CCC3CC32)c1 (stereo not shown) [Compound 87, 2-[6-amino-5-[8-[2-[3-(2-azabicyclo[3.1.0]hexan-2-yl)prop-1-ynyl]-4-pyridyl]-3,8-diazabicyclo[3.2.1]octan-3-yl]pyridazin-3-yl]phenol] | < 10 | < 10 | E (E indicates −30%-−70%) | 30 to 70
Nc1nnc(-c2ccccc2O)cc1N1CC2CCC(C1)N2c1ccnc(C#CCN2C[C@@H]3[C@@H](CO)[C@@H]3C2)c1 [Compound 118, 2-[6-amino-5-[8-[2-[3-[(1S,5R)-6-(hydroxymethyl)-3-azabicyclo[3.1.0]hexan-3-yl]prop-1-ynyl]-4-pyridyl]-3,8-diazabicyclo[3.2.1]octan-3-yl]pyridazin-3-yl]phenol] | < 10 | 10 to 100 | E (E indicates −30%-−70%) | 30 to 70
CC1CN(CC#Cc2cc(N3C4CCC3CN(c3cc(-c5ccccc5O)nnc3N)C4)ccn2)CCC(F)(F)C1 (stereo not shown) [Compound 212, 2-[6-amino-5-[8-[2-[3-(5,5-difluoro-3-methyl-azepan-1-yl)prop-1-ynyl]-4-pyridyl]-3,8-diazabicyclo[3.2.1]octan-3-yl]pyridazin-3-yl]phenol] | < 10 | < 10 | F (F indicates −71%-−120%) | 71 to 120
Nc1nnc(-c2ccccc2O)cc1N1CC2CCC(C1)N2c1ccnc(C#CCN2CCC(N3CCOCC3)C2)c1 (stereo not shown) [Compound 80, 2-[6-amino-5-[8-[2-[3-(3-morpholinopyrrolidin-1-yl)prop-1-ynyl]-4-pyridyl]-3,8-diazabicyclo[3.2.1]octan-3-yl]pyridazin-3-yl]phenol] | < 10 | 10 to 100 | E (E indicates −30%-−70%) | 0 to 30
Nc1nnc(-c2ccccc2O)cc1N1CC2CCC(C1)N2c1ccnc(C#CCN2CC3COCC(C2)C3O)c1 (stereo not shown) [Compound 83, 7-[3-[4-[3-[3-amino-6-(2-hydroxyphenyl)pyridazin-4-yl]-3,8-diazabicyclo[3.2.1]octan-8-yl]-2-pyridyl]prop-2-ynyl]-3-oxa-7-azabicyclo[3.3.1]nonan-9-ol] | 10 to 100 | > 100 | E (E indicates −30%-−70%) | 30 to 70
Nc1nnc(-c2ccccc2O)cc1N1CC2CCC(C1)N2c1ccnc(C#CCN2C[C@@H]3C[C@H]2C[C@H]3O)c1 [Compound 130, (1S,4S,5R)-2-[3-[4-[3-[3-amino-6-(2-hydroxyphenyl)pyridazin-4-yl]-3,8-diazabicyclo[3.2.1]octan-8-yl]-2-pyridyl]prop-2-ynyl]-2-azabicyclo[2.2.1]heptan-5-ol] | 10 to 100 | < 10 | E (E indicates −30%-−70%) | 30 to 70
Nc1nnc(-c2ccccc2O)cc1N1CCC2(CCN(c3ccnc(C#CCN4CCCCCC4)c3)C2)CC1 [Compound 250, 2-(6-amino-5-(2-(2-(3-(azepan-1-yl)prop-1-yn-1-yl)pyridin-4-yl)-2,8-diazaspiro[4.5]decan-8-yl)pyridazin-3-yl)phenol] | 10 to 100 | < 10 | E (E indicates −30%-−70%) | 30 to 70
Nc1nnc(-c2ccccc2O)cc1N1CC2CCC(C1)N2c1ccnc(C#CCN2CC3COC(C3)C2)c1 (stereo not shown) [Compound 98, 2-[6-amino-5-[8-[2-[3-(6-oxa-3-azabicyclo[3.2.1]octan-3-yl)prop-1-ynyl]-4-pyridyl]-3,8-diazabicyclo[3.2.1]octan-3-yl]pyridazin-3-yl]phenol] | > 100 | 10 to 100 | E (E indicates −30%-−70%) | –
Nc1nnc(-c2ccccc2O)cc1N1CC2CCC(C1)N2c1ccnc(C#CCN2CCN(C3CC3)CC2)c1 [Compound 38, 2-[6-amino-5-[8-[2-[3-(4-cyclopropylpiperazin-1-yl)prop-1-ynyl]-4-pyridyl]-3,8-diazabicyclo[3.2.1]octan-3-yl]pyridazin-3-yl]phenol] | > 100 | 10 to 100 | E (E indicates −30%-−70%) | –
Nc1nnc(-c2ccccc2O)cc1N1CC2CCC(C1)N2c1ccnc(C#CCN2CCC3CCC2C3)c1 (stereo not shown) [Compound 221, 2-[6-amino-5-[8-[2-[3-(2-azabicyclo[3.2.1]octan-2-yl)prop-1-ynyl]-4-pyridyl]-3,8-diazabicyclo[3.2.1]octan-3-yl]pyridazin-3-yl]phenol] | < 10 | < 10 | E (E indicates −30%-−70%) | 30 to 70
